In US10576082B2, “ErbB2 regulates autophagic flux to modulate the proteostasis of APP-CTFs in alzheimer's disease” (Academia Sinica, priority 2016, dated 2020):

What was measured:
[1] = tested on: APPswe/PS1ΔE9 double transgenic mice; experiment: Morris water maze in APPswe/PS1ΔE9 transgenic mice; assay type: in vivo, mouse; settings: 5 mg/kg daily oral
[2] = tested on: APPswe/PS1ΔE9 double transgenic mice; experiment: Co-immunoprecipitation (anti-BECN1) of brain lysates of treated APPswe/PS1ΔE9 mice; assay type: in vivo, mouse
[3] = tested on: APPswe/PS1ΔE9 double transgenic mice; experiment: Brain Aβ40 and Aβ42 ELISA in treated APPswe/PS1ΔE9 mice; assay type: in vivo, mouse; settings: 5 mg/kg daily oral, 20 days, normalized to total protein
[4] = tested on: γ-secretase-mediated proteolysis of C99 (CG cells); experiment: Cell-based C99-specific γ-secretase assay (CG cells, Gal4 luciferase reporter); settings: 1 μM inhibitor, 1 μg/ml tetracycline, 37° C., 24 h
Experimental: (A) Adherent CG and NG cells (20,000 cells/well) were treated with 1 μM of the indicated ErbB1/2-selective tyrosine kinase inhibitors in the presence of 1 μg/ml tetracycline at 37° C. for 24 h. The luminescence signals emitted by cells treated with vehicle alone (Ctrl, 0.1% DMSO) were referred to as 100% relative luminescence signals. The luminescence signals generated by γ-secretase-mediated proteolysis of C99 (CG) or NΔE (NG) were determined using the Steady-Glo luciferase assay reagent. (B) HEK293 overexpressing C99-YFP cells were treated with 1 μM of the indicated ErbB1/2 tyrosine kinase inhibitors at 37° C. for 24 h. Clarified lysates were analyzed by Western blotting and quantified by Image J. (C) HEK293 overexpressing ErbB1 ErbB2, CFP-tagged C99, and YFP-tagged NΔE cells were infected with gene-targeting shRNA-encoding lentivirus (shErbB1 or shErbB2) at 37° C. for 48 h. Clarified lysates containing equivalent amounts of proteins were examined by Western blotting and quantified by Image J. (D) CG and NG cells were infected with gene-targeting shRNA-encoding lentivirus at 37° C. for 48 h. Following induction with 1 μg/ml tetracycline for 24 h. […] Data are shown as the mean±SD from three independent experiments, and were analyzed by Student's t-tests. * p<0.05. […]

[5] = tested on: zebrafish embryos expressing GFP-tagged C99; experiment: Phenotype of C99-expressing zebrafish embryos (curved trunk, Notch-dependent somite development); assay type: in vivo; settings: treated from 48 hpf to 72 hpf, scored at 72 hpf, n=90
[6] = tested on: APPswe/PS1ΔE9 double transgenic mice; experiment: Western blotting of brain homogenates of treated APPswe/PS1ΔE9 mice; assay type: in vivo, mouse; settings: 5 mg/kg daily oral, 20 days

## CC#CC(=O)Nc1ccc2ncnc(Nc3cccc(Br)c3)c2c1 [CL-387,785, N-[4-[(3-bromophenyl)amino]-6-quinazolinyl]-2-butynamide]
[1]; after 3 weeks of daily dosing (day 21)
  probe test with invisible platform (cognitive function versus vehicle-treated AD mice): dramatic cognitive improvement
[1]; after 16 days of daily dosing
  spatial learning (escape latency, Morris water maze): significantly enhanced spatial learning
[2]; 5 mg/kg daily oral, 20 days
  phosphorylation of EGFR(ErbB1) in brain: inhibited
[2]; 5 mg/kg daily oral, 20 days, co-immunoprecipitation
  interaction between ErbB2 with Beclin-1 in brain: drastically suppressed
[2]; summary statement for the compound (FIG. 7)
  formation of the Beclin1-Vps34-Vps15 complex: rescues the formation
[3]
  reduction in the level of Aβ40 in brain: approximately 40%
  reduction in the level of Aβ42 in brain: approximately 40%
[4]
  processing of C99 (luminescence signal in CG cells): effectively blocked the processing of C99
[5]
  embryo phenotype (trunk, tail, pigmentation; developmental defects): all but one CL-387,785-treated embryos exhibited wild-type trunks and tails with normal pigmentation
[6]
  brain level of APP-CTF: significant reduction
  brain level of ErbB2: significant reduction
  brain level of p62: significant reduction
  brain level of total APP: steady level
  brain ratio of LC3-II to LC3-I: increase
